Active and inactive are the calls of the source. The rule behind the calls is not given here.
Assays:
[1] = molecular target: T1, DNA topoisomerase 1 (Homo sapiens) (UniProt P11387); test: Inhibition of human TOP1 assessed as decrease in relaxation of supercoiled DNA using supercoiled plasmid DNA pGEM1 as substrate at 1 uM preincubated for 30 mins by SDS gel electrophoresis method; parameters: scale not given: the % may be the effect or the level left
T1 sequence (whole entry): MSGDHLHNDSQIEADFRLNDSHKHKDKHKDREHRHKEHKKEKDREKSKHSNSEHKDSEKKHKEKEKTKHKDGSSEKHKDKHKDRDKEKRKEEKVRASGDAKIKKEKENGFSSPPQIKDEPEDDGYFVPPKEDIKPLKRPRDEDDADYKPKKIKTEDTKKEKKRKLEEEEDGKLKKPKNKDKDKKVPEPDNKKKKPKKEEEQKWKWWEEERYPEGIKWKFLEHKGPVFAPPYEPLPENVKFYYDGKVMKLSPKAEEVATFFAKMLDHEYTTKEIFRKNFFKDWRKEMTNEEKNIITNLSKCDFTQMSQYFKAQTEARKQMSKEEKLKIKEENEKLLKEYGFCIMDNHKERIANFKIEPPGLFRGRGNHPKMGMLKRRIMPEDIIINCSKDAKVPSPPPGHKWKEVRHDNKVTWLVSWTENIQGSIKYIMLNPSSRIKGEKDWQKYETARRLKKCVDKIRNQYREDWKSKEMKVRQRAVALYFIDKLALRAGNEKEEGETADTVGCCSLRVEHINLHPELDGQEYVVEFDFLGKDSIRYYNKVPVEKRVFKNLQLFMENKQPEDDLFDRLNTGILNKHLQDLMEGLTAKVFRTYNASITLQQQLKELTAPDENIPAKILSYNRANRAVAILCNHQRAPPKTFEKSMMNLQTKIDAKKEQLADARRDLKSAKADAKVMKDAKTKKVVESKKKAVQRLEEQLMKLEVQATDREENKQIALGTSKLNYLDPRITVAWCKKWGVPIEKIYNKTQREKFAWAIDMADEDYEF

[2] = molecular target: T1, DNA topoisomerase 1 (Homo sapiens); test: Inhibition of human TOP1 assessed as decrease in relaxation of supercoiled DNA using supercoiled plasmid DNA pGEM1 as substrate at 100 uM preincubated for 30 mins by SDS gel electrophoresis method; parameters: scale not given: the % may be the effect or the level left
HL-60 [3] = test: Antiproliferation activity against human HL60 cells assessed as reduction in cell viability measured after 72 hrs by MTT assay; format: functional, cell-based; conditions: HL-60, 72 h
SW480 [4] = test: Antiproliferation activity against human SW480 cells assessed as reduction in cell viability measured after 72 hours by MTT assay; format: functional, cell-based; conditions: SW480, 72 h
HL-60 [5] = test: Antiproliferative activity against human HL60 cells assessed as reduction in cell viability at 20 uM measured after 72 hrs by MTT assay relative to control; format: functional
HL-60 [6] = test: Induction of cell cycle arrest in human HL60 cells assessed as accumulation of cells at S phase at 20 to 35 nM incubated for 24 hrs by propidium iodide staining based flow cytometric analysis; format: functional
SW480 [7] = test: Antiproliferative activity against human SW480 cells assessed as reduction in cell viability at 20 uM measured after 72 hours by MTT assay relative to control; format: functional
HL-60 [8] = test: Induction of cell cycle arrest in human HL60 cells assessed as accumulation of cells at G2 phase at 20 to 35 nM incubated for 24 hrs by propidium iodide staining based flow cytometric analysis; format: functional
HL-60 [9] = test: Induction of cell cycle arrest in human HL60 cells assessed as accumulation of cells at G2 phase incubated for 24 hrs by propidium iodide staining based flow cytometric analysis; format: functional
SW480 [10] = test: Induction of cell death in human SW480 cells assessed as accumulation of large cells incubated for 72 hrs by Hoechst […] staining based fluorescence microscopic method; format: functional
[11] = molecular target: T1, DNA topoisomerase 1 (Homo sapiens); test: Inhibition of human TOP1 assessed as decrease in relaxation of supercoiled DNA using supercoiled plasmid DNA pGEM1 as substrate at 10 uM preincubated for 30 mins by SDS gel electrophoresis method; parameters: scale not given: the % may be the effect or the level left
SW480 [12] = test: Induction of cell death in human SW480 cells assessed as accumulation of large nuclei incubated for 72 hrs by Hoechst […] staining based fluorescence microscopic method; format: functional
SW480 [13] = test: Induction of cell cycle arrest in human SW480 cells assessed as accumulation of cells at S phase at 20 to 35 nM incubated for 72 hrs by propidium iodide staining based flow cytometric analysis; format: functional
SW480 [14] = test: Induction of cell death in human SW480 cells assessed as accumulation of large nuclei at 2 uM incubated for 72 hrs by Hoechst […] staining based fluorescence microscopic method; format: functional
SW480 [15] = test: Induction of cell cycle arrest in human SW480 cells assessed as S phase cell cycle arrest at 2 to 4 uM incubated for 72 hrs by propidium iodide staining based flow cytometric analysis; format: functional
SW480 [16] = test: Induction of apoptosis in human SW480 cells assessed as activation of caspases preincubated for 72 hrs followed by addition of fluorescent pan-caspase substrate incubated for 90 mins by fluorescence based assay; format: functional, cell-based
SW480 [17] = test: Induction of cell death in human SW480 cells assessed as accumulation of large cells at 2 uM incubated for 72 hrs by Hoechst […] staining based fluorescence microscopic method; format: functional
HL-60 [18] = test: Induction of apoptosis in human HL60 cels assessed as activation of caspases preincubated for 24 hrs followed by addition of fluorescent pan-caspase substrate incubated for 90 mins by fluorescence based assay; format: functional, cell-based
HL-60 [19] = test: Induction of cell cycle arrest in human HL60 cells assessed as accumulation in G2/M phase at 2 to 4 uM 24 hrs by propidium iodide staining based flow cytometric analysis; format: functional
SW480 [20] = test: Induction of cell cycle arrest in human SW480 cells assessed as accumulation in G2/M phase at 2 to 4 uM for 72 hrs by propidium iodide staining based flow cytometric analysis; format: functional

| Compound | Activity [1] | Activity [2] | fold change (FC) (HL-60 [5]) | fold change (FC) (SW480 [7]) | Activity [11] | other results |
| --- | --- | --- | --- | --- | --- | --- |
| CC[C@@]1(O)C(=O)OCc2c1cc1n(c2=O)Cc2cc3ccccc3nc2-1 [CAMPTOTHECIN] | 2.1% | 26.3% | 0 | 0.3 | 6% | IC50 (HL-60 [3]): 0.018 µM; IC50 (SW480 [4]): 0.21 µM; Activity (HL-60 [6]): Active; Activity (HL-60 [8]): inactive; Activity (HL-60 [9]): Dose-dependent effect; Activity (SW480 [10]): inactive; Activity (SW480 [12]): inactive; Activity (SW480 [13]): Active |
| Nc1cccc2cc3c(nc12)-c1nc2ccccc2c(=O)n1C3 |  |  | 0.02 | 0.58 |  |  |
| Nc1ccc2nc3n(c(=O)c2c1)Cc1cc2cccc(N)c2nc1-3 | 2.6% | 12.6 to 13% | 0.01 | 0.31 | 9 to 9.2% | Activity (SW480 [14]): Active; Activity (SW480 [15]): inactive; Activity (SW480 [16]): inactive; Activity (SW480 [17]): Active; Activity (HL-60 [18]): Active; IC50 (HL-60 [3]): 0.82 µM; IC50 (SW480 [4]): 2.03 µM; Activity (HL-60 [19]): Active; Activity (SW480 [20]): Active |
| COc1ccc2nc3c(cc2c1)Cn1c-3nc2ccc(Br)cc2c1=O |  |  | 0.82 | inactive |  |  |
| Nc1ccc2nc3c(cc2c1)Cn1c-3nc2ccccc2c1=O |  |  | 0.26 | 0.24 |  |  |
| COc1cc(OC)c2cc3c(nc2c1)-c1nc2ccc(I)cc2c(=O)n1C3 |  |  | 0.83 | 0.99 |  |  |
| COc1cc(OC)c2cc3c(nc2c1)-c1nc2ccc(N)cc2c(=O)n1C3 |  |  | 0.73 | 0.98 |  |  |
| O=c1c2ccccc2nc2n1Cc1cc3cccc(F)c3nc1-2 |  |  | 0.61 | 0.88 |  |  |
| COc1cc(OC)c2cc3c(nc2c1)-c1nc2ccc(Br)cc2c(=O)n1C3 |  |  | inactive | 0.89 |  |  |
| O=c1c2ccccc2nc2n1Cc1cc3ccccc3nc1-2 [LUOTONIN A] | 2.1% | 16.3% | 0.83 | 0.91 | 2.6% |  |

Reference: ChEMBL document CHEMBL4619719, “A-ring and E-ring modifications of the cytotoxic alkaloid Luotonin A: Synthesis, computational and biological studies” (Bioorg Med Chem, 2020)
